{"source": "paper PMC12624743", "about": "(ACS Infectious Diseases, 2025)", "key": {"[1]": {"target": "T1, N. gonorrhoeae topoisomerase IV ParC^D86N (Neisseria gonorrhoeae, UniProt P48374, D86N)", "T1 construct": "His; made in house", "T1 sequence (P48374 1-768 D86N)": "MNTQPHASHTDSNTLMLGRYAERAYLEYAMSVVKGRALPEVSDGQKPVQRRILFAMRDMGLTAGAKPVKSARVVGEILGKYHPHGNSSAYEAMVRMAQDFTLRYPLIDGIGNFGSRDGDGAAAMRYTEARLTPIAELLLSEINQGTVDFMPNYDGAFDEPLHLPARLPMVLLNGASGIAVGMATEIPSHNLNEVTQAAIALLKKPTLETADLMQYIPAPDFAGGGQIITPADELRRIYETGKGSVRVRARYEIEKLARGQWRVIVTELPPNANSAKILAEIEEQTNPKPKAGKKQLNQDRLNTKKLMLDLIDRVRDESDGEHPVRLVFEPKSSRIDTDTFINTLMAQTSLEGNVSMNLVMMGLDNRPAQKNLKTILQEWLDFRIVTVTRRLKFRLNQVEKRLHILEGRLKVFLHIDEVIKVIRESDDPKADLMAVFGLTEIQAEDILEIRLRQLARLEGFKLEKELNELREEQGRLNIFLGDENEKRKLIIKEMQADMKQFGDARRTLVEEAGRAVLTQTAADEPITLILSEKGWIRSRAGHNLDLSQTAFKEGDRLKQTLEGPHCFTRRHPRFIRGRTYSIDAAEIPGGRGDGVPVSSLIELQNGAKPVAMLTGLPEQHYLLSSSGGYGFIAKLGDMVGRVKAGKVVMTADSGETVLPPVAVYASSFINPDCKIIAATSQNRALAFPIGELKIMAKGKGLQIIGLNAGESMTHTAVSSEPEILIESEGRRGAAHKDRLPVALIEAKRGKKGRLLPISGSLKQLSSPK", "assay": "DNA cleavage assay, ParC^D86N topoisomerase IV", "type": "biochemical", "method": "Some experiments replaced MgCl2 with an equivalent concentration of CaCl2 (10 mM), or 1.5 mM ATP was added to assay mixtures.\nReactions were incubated at 37 °C for 30 min with WT and mutant (GyrA^D90N, GyrA^A92T, GyrA^S91F, GyrA^D95G, or GyrA^S91F/D95G) N. gonorrhoeae gyrase, 10 min with WT N. gonorrhoeae topoisomerase IV, and 20 min with mutant (ParC^D86N, ParC^S88P, ParC^S87N, or ParC^E91G) N. gonorrhoeae topoisomerase IV. Enzyme-DNA cleavage complexes were trapped by adding 2 μL of 5% SDS followed by 2 μL of 250 mM EDTA (pH 8.0). Proteinase K was added (2 μL of a 0.8 mg/mL solution), and reaction mixtures were incubated at 45 °C for 30 min to digest the enzyme. Samples were mixed with 2 μL of loading buffer and heated at 45 °C for 2 min prior to electrophoresis in 1% agarose gels in 40 mM Tris-acetate (pH 8.3), and 2 mM EDTA containing 0.5 μg/mL ethidium bromide. DNA bands were visualized by midrange ultraviolet light and quantified using an Alpha Innotech digital imaging system (Protein Simple). Single-stranded DNA cleavage was monitored by the conversion of negatively supercoiled to nicked plasmid molecules."}, "[2]": {"target": "T2, N. gonorrhoeae gyrase GyrA^D95G (Neisseria gonorrhoeae, UniProt P48371, D95G)", "T2 construct": "His; made in house", "T2 sequence (P48371 whole entry D95G)": "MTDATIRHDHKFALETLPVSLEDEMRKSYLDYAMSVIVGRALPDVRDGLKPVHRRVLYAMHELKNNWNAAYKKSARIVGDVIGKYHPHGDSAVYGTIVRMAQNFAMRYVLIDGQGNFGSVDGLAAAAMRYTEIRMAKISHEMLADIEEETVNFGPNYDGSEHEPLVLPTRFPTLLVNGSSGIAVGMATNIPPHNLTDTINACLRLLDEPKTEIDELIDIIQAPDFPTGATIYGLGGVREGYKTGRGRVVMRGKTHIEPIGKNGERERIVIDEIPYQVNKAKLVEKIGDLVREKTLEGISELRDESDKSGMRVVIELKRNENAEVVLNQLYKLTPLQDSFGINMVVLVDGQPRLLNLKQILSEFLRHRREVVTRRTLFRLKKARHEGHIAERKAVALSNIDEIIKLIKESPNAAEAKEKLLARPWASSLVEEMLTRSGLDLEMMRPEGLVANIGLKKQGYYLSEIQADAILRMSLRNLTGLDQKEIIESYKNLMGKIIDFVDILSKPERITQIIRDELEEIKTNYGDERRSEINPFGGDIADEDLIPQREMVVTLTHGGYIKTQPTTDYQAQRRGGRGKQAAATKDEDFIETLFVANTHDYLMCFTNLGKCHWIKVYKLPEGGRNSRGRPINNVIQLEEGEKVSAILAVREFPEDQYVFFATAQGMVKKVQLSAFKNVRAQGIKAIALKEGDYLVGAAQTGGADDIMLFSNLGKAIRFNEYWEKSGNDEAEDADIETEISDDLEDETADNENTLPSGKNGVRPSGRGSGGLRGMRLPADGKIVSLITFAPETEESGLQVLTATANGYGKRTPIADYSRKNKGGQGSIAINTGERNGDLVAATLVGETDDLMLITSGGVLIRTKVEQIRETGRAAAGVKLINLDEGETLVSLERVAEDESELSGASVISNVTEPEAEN", "T2 sequence (P22118 whole entry partner)": "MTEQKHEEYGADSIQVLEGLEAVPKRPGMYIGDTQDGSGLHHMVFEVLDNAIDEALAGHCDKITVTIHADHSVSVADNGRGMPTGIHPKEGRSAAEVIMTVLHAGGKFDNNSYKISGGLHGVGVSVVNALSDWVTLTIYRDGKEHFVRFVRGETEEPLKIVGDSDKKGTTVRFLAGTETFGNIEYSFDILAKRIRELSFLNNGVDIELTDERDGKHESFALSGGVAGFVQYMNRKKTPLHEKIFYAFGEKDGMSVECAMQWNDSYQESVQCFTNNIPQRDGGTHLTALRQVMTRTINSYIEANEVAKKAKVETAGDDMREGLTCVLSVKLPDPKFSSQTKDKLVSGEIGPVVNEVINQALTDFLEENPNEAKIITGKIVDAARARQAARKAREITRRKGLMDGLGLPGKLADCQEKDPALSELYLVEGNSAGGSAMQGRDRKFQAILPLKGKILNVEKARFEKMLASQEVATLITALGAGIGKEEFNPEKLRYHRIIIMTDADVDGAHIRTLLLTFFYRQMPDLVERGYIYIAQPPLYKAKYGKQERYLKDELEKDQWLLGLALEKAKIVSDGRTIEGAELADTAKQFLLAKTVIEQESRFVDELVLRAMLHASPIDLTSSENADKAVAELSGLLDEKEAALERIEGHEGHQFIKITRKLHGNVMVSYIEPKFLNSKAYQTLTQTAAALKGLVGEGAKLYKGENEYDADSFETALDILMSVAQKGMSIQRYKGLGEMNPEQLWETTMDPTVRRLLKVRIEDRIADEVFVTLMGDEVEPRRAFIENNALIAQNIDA", "assay": "Gyrase-catalyzed DNA supercoiling assay, GyrA^D95G", "type": "biochemical", "method": "All proteins were His-tagged. N. gonorrhoeae WT gyrase (GyrA, GyrB) and topoisomerase IV (ParC, ParE) subunits as well as mutant GyrA^D90N, GyrA^A92T, GyrA^S91F, and GyrA^S91F/D95G gyrase and ParC^D86N and ParC^S88P topoisomerase IV were prepared as described previously. , N. gonorrhoeae mutant GyrA^D95G gyrase and mutant ParC^S87N and ParC^E91G topoisomerase IV were generated using a QuickChange II XL site-directed mutagenesis kit (Agilent Technologies) with custom primers for the desired mutations. […] The identities of all constructs were confirmed by DNA sequencing, and all enzymes were stored at −80 °C. In all assays, N. gonorrhoeae gyrase or topoisomerase IV was used as a 1:1 GyrA:GyrB or ParC:ParE mixture, respectively, and the stated enzyme concentration reflects that of the holoenzyme (A2B2).\nSamples were mixed with 2 μL of loading dye [60% sucrose, 10 mM Tris–HCl (pH 7.9), 0.5% bromophenol blue, and 0.5% xylene cyanol FF] and incubated at 45 °C for 2 min before being subjected to electrophoresis on 1% agarose gels in 100 mM Tris-borate (pH 8.3) and 2 mM EDTA. […] DNA bands were visualized with medium-range ultraviolet light and quantified using an Alpha Innotech digital imaging system (Protein Simple). DNA supercoiling was monitored by the conversion of relaxed to supercoiled plasmid."}}}
{"smiles": "O=c1ccc2ncc(=O)n3c2n1C[C@H]3CN1CCC(NCc2cc3c(cn2)OCCC3)CC1", "note": "[gepotidacin]", "values": [{"measurement": "Adj-Max Cleavage, single-stranded DNA breaks", "setting": "[1]", "value": 9.3, "unit": "%"}, {"measurement": "EC50", "setting": "[1]; ParC D86N topoisomerase IV, read-out: CC50, single-stranded DNA cleavage", "value": "> 50", "unit": "µM"}, {"measurement": "IC50", "setting": "[2]; GyrA D95G gyrase, read-out: IC50, inhibition of DNA supercoiling", "value": 2, "unit": "µM"}, {"measurement": "fold lower supercoiling IC50 vs WT gyrase", "setting": "[2]; GyrA D95G vs WT", "value": "~2.6", "unit": "fold"}]}
